Experimental data as given in US20050009840A1 (SUGEN, INC., priority 2003, published 2005).
Read-outs that look alike come from different tables or passages of the source.

Biological target: T1, Met kinase domain (GST fusion protein) (Homo sapiens, UniProt P08581)
T1 construct: Purified GST fusion protein containing the Met kinase domain
Test: Met transphosphorylation assay (ELISA, poly(glu-tyr) substrate);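 also: Cell-free ELISA with plate-bound poly(Glu:Tyr 4:1) phosphorylated by GST-fused Met kinase domain plus ATP and Mn2+, phosphotyrosine detected by anti-phosphotyrosine antibody with HRP and ABTS read-out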
Format: biochemical
Conditions: read-out: Met IC50

T1 sequence (P08581 1078-1345 limits assumed): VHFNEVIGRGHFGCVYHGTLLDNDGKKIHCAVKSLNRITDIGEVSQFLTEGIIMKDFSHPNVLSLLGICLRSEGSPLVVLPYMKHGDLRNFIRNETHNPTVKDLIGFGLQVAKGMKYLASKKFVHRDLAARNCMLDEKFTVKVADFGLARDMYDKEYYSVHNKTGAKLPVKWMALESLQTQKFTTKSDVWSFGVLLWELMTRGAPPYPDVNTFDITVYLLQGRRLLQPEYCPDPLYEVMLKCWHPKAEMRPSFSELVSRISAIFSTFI

IC50	IC50 (Table 2)	Compound
1.2 µM	–	Nc1ncc(-c2ccc(C(=O)N3CC[C@H](N)C3)cc2)cc1OCc1ccc(Cl)cc1Cl [Example I-175, {4-[6-Amino-5-(2,4-dichloro-benzyloxy)-pyridin-3-yl]-phenyl}-[(3S)-3-amino-pyrrolidin-1-yl]-methanone]
0.79 µM	–	CN1CCN(C(=O)c2ccc(-c3cnc(N)c(OCc4ccc(Cl)cc4Cl)c3)cc2)CC1 [Example I-177, {4-[6-Amino-5-(2,4-dichloro-benzyloxy)-pyridin-3-yl]-phenyl}-(4-methyl-piperazin-1-yl)-methanone]
1.67 µM	–	CC(=O)N1CCN(C(=O)c2ccc(-c3cnc(N)c(OCc4ccc(Cl)cc4Cl)c3)cc2)CC1 [Example I-178, 1-(4-{4-[6-Amino-5-(2,4-dichloro-benzyloxy)-pyridin-3-yl]-benzoyl}-piperazin-1-yl)-ethanone]
3.8 µM	–	Nc1ncc(-c2ccc(C(=O)NCCN3CCOCC3)cc2)cc1OCc1ccc(Cl)cc1Cl [Example I-180, 4-[6-Amino-5-(2,4-dichloro-benzyloxy)-pyridin-3-yl]-N-(2-morpholin-4-yl-ethyl)-benzamide]
–	0.79 µM	Nc1ncc(-c2ccc(C(=O)N3CC[C@H](N)C3)cc2)cc1OCc1ccccc1C(F)(F)F [Example I-186, [(3S)-3-Amino-pyrrolidin-1-yl]-{4-[6-amino-5-(2-trifluoromethyl-benzyloxy)-pyridin-3-yl]-phenyl}-methanone]
–	1.64 µM	CN1CCN(C(=O)c2ccc(-c3cnc(N)c(OCc4ccccc4C(F)(F)F)c3)cc2)CC1 [Example I-188, {4-[6-Amino-5-(2-trifluoromethyl-benzyloxy)-pyridin-3-yl]-phenyl}-(4-methyl-piperazin-1-yl)-methanone]
–	5.2 µM	Nc1ncc(-c2ccc(C(=O)NCCN3CCOCC3)cc2)cc1OCc1ccccc1C(F)(F)F [Example I-191, 4-[6-Amino-5-(2-trifluoromethyl-benzyloxy)-pyridin-3-yl]-N-(2-morpholin-4-yl-ethyl)-benzamide]
–	3.8 µM	CN1CCN(C(=O)c2ccc(-c3cnc(N)c(OCc4ccc(C(C)(C)C)cc4)c3)cc2)CC1 [Example I-197, {4-[6-Amino-5-(4-tert-butyl-benzyloxy)-pyridin-3-yl]-phenyl}-(4-methyl-piperazin-1-yl)-methanone]
–	3 µM	CC(=O)N1CCN(C(=O)c2ccc(-c3cnc(N)c(OCc4ccc(C(C)(C)C)cc4)c3)cc2)CC1 [Example I-198, 1-(4-{4-[6-Amino-5-(4-tert-butyl-benzyloxy)-pyridin-3-yl]-benzoyl}-piperazin-1-yl)-ethanone]
–	6.88 µM	CC(C)(C)c1ccc(COc2cc(-c3ccc(C(=O)NCCN4CCOCC4)cc3)cnc2N)cc1 [Example I-200, 4-[6-Amino-5-(4-tert-butyl-benzyloxy)-pyridin-3-yl]-N-(2-morpholin-4-yl-ethyl)-benzamide]
–	61 µM	CN(C)[C@H]1CCN(C(=O)c2ccc(-c3cnc(N)c(OCc4ccc(F)cc4Cl)c3)cc2)C1 [Example I-205, {4-[6-Amino-5-(2-chloro-4-fluoro-benzyloxy)-pyridin-3-yl]-phenyl}-[(3S)-3-dimethylamino-pyrrolidin-1-yl]-methanone]
–	1.83 µM	Nc1ncc(-c2ccc(C(=O)N3CC[C@H](N)C3)cc2)cc1OCc1ccc(F)cc1Cl [Example I-206, {4-(6-Amino-5-(2-chloro-4-fluoro-benzyloxy)-pyridin-3-yl]-phenyl}-[(3S)-3-amino-pyrrolidin-1-yl]-methanone]
–	5 µM	CN1CCN(C(=O)c2ccc(-c3cnc(N)c(OCc4ccc(F)cc4Cl)c3)cc2)CC1 [Example I-207, {4-(6-Amino-5-(2-chloro-4-fluoro-benzyloxy)-pyridin-3-yl]-phenyl}-(4-methyl-piperazin-1-yl)-methanone]
–	5.3 µM	CC(=O)N1CCN(C(=O)c2ccc(-c3cnc(N)c(OCc4ccc(F)cc4Cl)c3)cc2)CC1 [Example I-208, 1-(4-{4-(6-Amino-5-(2-chloro-4-fluoro-benzyloxy)-pyridin-3-yl]-benzoyl}-piperazin-1-yl)-ethanone]
–	11 µM	Nc1ncc(-c2ccc(C(=O)NCCN3CCOCC3)cc2)cc1OCc1ccc(F)cc1Cl [Example I-209, 4-[6-Amino-5-(2-chloro-4-fluoro-benzyloxy)-pyridin-3-yl]-N-(2-morpholin-4-yl-ethyl)-benzamide]
–	0.35 µM	Nc1ncc(-c2ccc(C(=O)O)cc2)cc1OCc1c(F)ccc(F)c1Cl [Example I-211, 4 [6 Amino-5-(2-chloro-3,6-difluoro-benzyloxy)-pyridin-3-yl]-benzoic acid]
–	0.063 µM	CN1CCN(C(=O)c2ccc(-c3cnc(N)c(OCc4c(F)ccc(F)c4Cl)c3)cc2)CC1 [Example I-212, {4-[6-Amino-5-(2-chloro-3,6-difluoro-benzyloxy)-pyridin-3-yl]-phenyl}-(4-methyl-piperazin-1-yl)-methanone]
–	0.1 µM	Nc1ncc(-c2ccc(C(=O)N3CCC(N)CC3)cc2)cc1OCc1c(F)ccc(F)c1Cl [Example I-214, {4-[6-Amino-5-(2-chloro-3,6-difluoro-benzyloxy)-pyridin-3-yl]-phenyl}-(4-amino-piperidin-1-yl)-methanone]
–	0.053 µM	Nc1ncc(-c2ccc(C(=O)N3CC[C@@H](N)C3)cc2)cc1OCc1c(F)ccc(F)c1Cl [Example I-218, {4-[6-Amino-5-(2-chloro-3,6-difluoro-benzyloxy)-pyridin-3-yl]-phenyl}-[(3R)-3-amino-pyrrolidin-1-yl]-methanone]

Compound	IC50	IC50 (Table 2)
CN(C)[C@H]1CCN(C(=O)c2ccc(-c3cnc(N)c(OCc4ccc(Cl)cc4Cl)c3)cc2)C1 [Example I-174, {4-[6-Amino-5-(2,4-dichloro-benzyloxy)-pyridin-3-yl]-phenyl}-[(3S)-3-dimethylamino-pyrrolidin-1-yl]-methanone]	0.8 µM	–
Nc1ncc(-c2ccc(C(=O)NCCCN3CCOCC3)cc2)cc1OCc1ccc(Cl)cc1Cl [Example I-181, 4-[6-Amino-5-(2,4-dichloro-benzyloxy)-pyridin-3-yl]-N-(3-morpholin-4-yl-propyl)-benzamide]	2 µM	–
CN(C)[C@H]1CCN(C(=O)c2ccc(-c3cnc(N)c(OCc4ccccc4C(F)(F)F)c3)cc2)C1 [Example I-185, {4-[6-Amino-5-(2-trifluoromethyl-benzyloxy)-pyridin-3-yl]-phenyl}-[(3S)-3-dimethylamino-pyrrolidin-1-yl]-methanone]	–	1.39 µM
Nc1ncc(-c2ccc(C(=O)NCCCN3CCOCC3)cc2)cc1OCc1ccccc1C(F)(F)F [Example I-192, 4-[6-Amino-5-(2-trifluoromethyl-benzyloxy)-pyridin-3-yl]-N-(3-morpholin-4-yl-propyl)-benzamide]	–	3.8 µM
Nc1ncc(-c2ccc(C(=O)NCCCN3CCOCC3)cc2)cc1OCc1ccc(F)cc1Cl [Example I-210, 4-[6-Amino-5-(2-chloro-4-fluoro-benzyloxy)-pyridin-3-yl]-N-(3-morpholin-4-yl-propyl)-benzamide]	–	5.8 µM
CN(C)[C@H]1CCN(C(=O)c2ccc(-c3cnc(N)c(OCc4c(F)ccc(F)c4Cl)c3)cc2)C1 [Example I-217, {4-[6-Amino-5-(2-chloro-3,6-difluoro-benzyloxy)-pyridin-3-yl]-phenyl}-[(3S)-3-dimethylamino-pyrrolidin-1-yl]-methanone]	–	0.12 µM
